Experimental data published in US11767313B2, “Compounds as nuclear transport modulators and uses thereof” (XWPHARMA LTD., priority 2018, dated 2023).
Read-outs that look alike come from different tables or passages of the source.

Experiments:
in vivo = details: female, BALB/c Nude, mouse
T98G = experiment: CellTiter-Glo cell proliferation assay, T98G; assay type: cell-based; details: Homo sapiens, T98G; Table 11; read-out: Absolute IC50 (μM) T98G
Protocol: (§1) CellTiter-Glo® Luminescent Cell Viability assay (with Promega CellTiter 96® Luminescent CellTiter-Glo® kit) was used to study the proliferation inhibition by test compounds. Compounds were resuspended in DMSO to make a 25 mM stock suspension. Cells of cancer cell lines or normal tissues were seeded in 96-well plates at 1,500 to 5,000 cells/well overnight. Compounds were 2- or 3-fold diluted serially to obtain 10 concentrations. Then, the drugs were added to the cell wells by Bravo (Agilent) and incubated for 72 hours. The cells were lysed by adding CellTiter-Glo® Reagent (per manufacturer's instructions) and subsequently, the luminescence was read using EnVision® (PerkinElmer).
(§2) The percent of growth was calculated as follows. DMSO-treated cells were employed as vehicle control (High control, HC) and culture medium alone was employed as background (Low control, EC). % growth=100×(Lum sample−Lum EC)/(Lum HC−Lum EC). The ICso was calculated by concentration-response curve fitting using Graphpad Prism.
(§3) Hematological cancer cell lines tested included OCI-AML3, MV-4-11, KG-1, Kasumi-1, K562, THP-1; solid cancer cell lines tested included U87MG, U251, T98G, LN229, A172, H460, H2009, A549; normal cell lines tested included HCN2 and 3T3-L1. […] However, they were not toxic to in vitro cultured normal cells.

A-172 = experiment: CellTiter-Glo cell viability assay, A-172; assay type: cell-based; details: Homo sapiens, Table 6
Protocol: as §1, §2
The inhibition activity of test compounds was determined in A-172, U87MG and 3T3-L1 cell lines.
A CellTiter-Glo® luminescent cell viability assay was performed s described in Example 1.

U87MG = experiment: CellTiter-Glo cell proliferation assay, U87MG; assay type: cell-based, human; details: Homo sapiens, U-87 MG, read-out: U87MG IC50
Protocol: as §1, §2, §3

HCT116 = experiment: Cytotoxicity, cell proliferation assay, HCT116 colon cancer; assay type: cell-based; details: Table 8
Protocol: as §1, §2
(§4) The cytotoxicity of test compounds in brain (HCN2), colon cancer (HCT116) and normal colon cell (C8-B4) lines was determined using the cell proliferation assay as described in Example 19.

3T3-L1 = experiment: CellTiter-Glo cell proliferation assay, 3T3-L1 (normal); assay type: cell-based; details: Mus musculus, 3T3-L1; Table 6; read-out: 3T3-L1 IC50
Protocol: as §1, §2, §3

[1] = 25 mg/kg p.o., qod x 3 per week, two weeks; BALB/c Nude mice
CRM1 = biological target: T1, CRM1 (Homo sapiens, UniProt O14980); experiment: PD effects by IHC in U87MG-luc orthotopic model, CRM1; assay type: in vivo, mice; details: orally three times a week for 2 weeks; vs vehicle control
T1 construct: from tissue; host or cells: U87MG-luc orthotopic xenograft tumours in mouse brain
T1 sequence (O14980 whole entry): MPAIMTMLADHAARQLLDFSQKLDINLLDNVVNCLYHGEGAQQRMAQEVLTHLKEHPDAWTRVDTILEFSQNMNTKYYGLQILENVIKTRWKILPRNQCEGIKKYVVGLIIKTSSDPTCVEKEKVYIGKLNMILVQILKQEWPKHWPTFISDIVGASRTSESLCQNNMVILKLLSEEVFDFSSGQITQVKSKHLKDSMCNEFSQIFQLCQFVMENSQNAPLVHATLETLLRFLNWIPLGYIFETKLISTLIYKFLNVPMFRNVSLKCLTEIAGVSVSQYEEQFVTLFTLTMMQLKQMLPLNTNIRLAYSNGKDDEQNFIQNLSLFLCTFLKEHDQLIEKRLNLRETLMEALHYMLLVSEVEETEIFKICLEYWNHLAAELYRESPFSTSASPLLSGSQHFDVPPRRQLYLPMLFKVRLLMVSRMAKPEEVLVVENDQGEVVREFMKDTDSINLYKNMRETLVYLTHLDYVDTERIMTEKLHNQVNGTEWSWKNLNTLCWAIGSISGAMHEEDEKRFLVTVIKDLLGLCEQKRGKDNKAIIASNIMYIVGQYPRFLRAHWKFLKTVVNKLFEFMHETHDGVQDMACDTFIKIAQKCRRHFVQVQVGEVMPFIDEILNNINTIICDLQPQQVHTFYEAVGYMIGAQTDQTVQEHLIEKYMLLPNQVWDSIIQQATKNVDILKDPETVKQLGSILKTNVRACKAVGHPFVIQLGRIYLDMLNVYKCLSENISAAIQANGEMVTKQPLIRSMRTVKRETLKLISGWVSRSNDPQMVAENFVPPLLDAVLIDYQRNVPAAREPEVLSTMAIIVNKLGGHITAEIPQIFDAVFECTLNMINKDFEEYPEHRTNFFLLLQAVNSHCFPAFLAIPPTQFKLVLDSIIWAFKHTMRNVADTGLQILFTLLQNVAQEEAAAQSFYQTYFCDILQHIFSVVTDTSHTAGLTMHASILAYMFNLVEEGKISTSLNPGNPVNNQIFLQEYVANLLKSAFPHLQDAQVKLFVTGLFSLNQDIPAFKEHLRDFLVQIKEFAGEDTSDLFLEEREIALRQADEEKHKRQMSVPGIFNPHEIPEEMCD
Protocol: (§5) Based on the bioluminescent signal of tumor, mice were randomly assigned to respective groups using a computer-generated randomization procedure, which included vehicle and compound III-treated groups, respectively, with 5 animals per group. Compound III (20 mg/kg) was given orally 3 times a week (on Day 1, 3, 5) for 2 weeks. Animals for IHC study were euthanized at 6 hours after the last dose and perfused with normal saline followed by fixation with 4% paraformaldehyde. Entire brains containing tumors were collected and kept in fixative for 24 hours before proceeding for paraffin block.

LN-229 = experiment: CellTiter-Glo cell proliferation assay, LN-229; assay type: cell-based; details: Homo sapiens, LN-229; Table 11; read-out: Absolute IC50 (μM) LN-229
Protocol: as §1, §2, §3

HCN2 = experiment: CellTiter-Glo cell proliferation assay, HCN2 (normal brain); assay type: cell-based; details: for IC50: read-out: HCN2 IC50
Protocol: as §1, §2, §3

[2] = Pharmacokinetic profile summary; assay type: in vivo, mice or rats; details: plasma
Protocol: Blood was collected from mice (n=3, or 5) to contribute to the total of 10 time points (pre-dose, 5 min, 15 min, 30 min, 1 hour, 2 hours, 4 hours, 8 hours, 12 hours and 24 hours). At the designated time points, animals were anaesthetized under isoflurane, and approximately 110 μL of blood per time point was collected via retro-orbital puncture into pre-cooled K2EDTA tubes. Blood samples were put on wet ice and centrifuged (2000 g, 5 min at 4° C.) to obtain plasma within 30 minutes of sample collection. All samples were stored frozen at approximately −80° C. until analysis. Prior to analysis, samples were mixed with internal standard in acetonitrile, vortexed, centrifuged, and supernatant was injected for analysis. Concentration of compounds in plasma was determined using LC-MS-MS instrumentation (API 4000, Triple Quadrupole LC/MS/MS Mass Spectrometer). AUC values were calculated using Phoenix Win Nonlin 6.3 software package, PO-Noncompartmental model 200 (extravascular input).
Following collection, brain tissue was rinsed with cold saline, dried on filter paper, weighed and snap-frozen by placing on dry ice. All samples were stored frozen at approximately −80° C. until analysis. At the time of analysis, brain tissue was homogenized (homogenizing solution PBS, pH 7.4), mixed with internal standard in acetonitrile, vortexed, centrifuged, and supernatant was injected for analysis. Concentration of compounds in plasma was determined using LC-MS-MS instrumentation (API 4000, Triple Quadrupole LC/MS/MS Mass Spectrometer). Plasma samples were treated with the identical method (except homogenization step) and the concentration of compound in each matrix was calculated based on generated standard curves.
The pharmacokinetic profile of test compounds in mice or rats was determined from several test compounds was determined using the methods described in Example 22.

U251 = experiment: CellTiter-Glo cell proliferation assay, U251; assay type: cell-based; details: Homo sapiens, U-251; Table 11; read-out: Absolute IC50 (μM) U251
Protocol: as §1, §2, §3

3T3 = experiment: Cytotoxicity, cell proliferation assay, 3T3; assay type: cell-based; details: Mus musculus, NIH3T3; Table 9
Protocol: as §1, §2
The cytotoxicity of test compounds was also determined in glioblastoma (U87MG)), brain (HCN2) and 3T3 cell lines was determined using the cell proliferation assay as described in Example 19.

U87MG cells = experiment: Capase-Glo 317 apoptosis assay; assay type: cell-based; details: Homo sapiens, U-87 MG, 72 hours
Protocol: A Capase-Glo® 317 assay was used to determine the apoptosis activity of test compounds in U87MG cells.
Compounds were dissolved in 25 mM DMSO stock solution and serially diluted. DMSO was used as the vehicle control (high control, HC) and culture medium was used as the background (low control LC). The test compounds were applied to plates and spun at 25° C. at 1,000 RPM for 1 min and shaken on a plate shaker for 2 min. Samples (80 nL) of the compounds from the plates were transferred to 384-well cell culture plates using a liquid handler.
Cells were harvested and the cell numbers counted. 40 μL of the cell suspension with the adjusted density was added to 384-well cell culture pates. The final cell density is 1,000 cells/well. Cell culture medium only was used in the low control (LC) samples. The plates were covered with a lid and placed in a 5% CO2 incur at 37° C. for 72 hours.
After incubating for 72 hours, the plates were removed from the incubator and equilibrated at 25° C. for 15 minutes. CellTiter Glo® regen was incubated at 37° C. before the experiments. 40 μL of Capase-Glo® 317 was added into each well to be detected at a 1:1 ratio to culture medium. The plates were then placed at 25° C. for 30 min and read using an EnSpire® Plate Reader.
The % activity remaining was determined using the following formula: % Remaining Activity=[…]×(Lumsample−LumLC)/(LumHC−LUM LC), where HC is obtained from cells treated with 0.1% DMSO only, LC is obtained from culture medium only.

C8-B4 = experiment: Cytotoxicity, cell proliferation assay, C8-B4; assay type: cell-based; details: Table 8
Protocol: as §1, §2, §4

Ki67 = experiment: PD effects by IHC in U87MG-luc orthotopic model, Ki67; assay type: in vivo, mice; details: orally three times a week for 2 weeks; vs vehicle control
Protocol: as §5

Structure (SMILES): O=C(/C=C\n1cnc(-c2cc(C(F)(F)F)cc(C(F)(F)F)c2)n1)NNc1cnccn1 [KPT-330, (Z)-3-(3-(3,5-bis(trifluoromethyl)phenyl)-1H-1,2,4-triazol-1-yl)-N′-(pyrazin-2-yl)acrylohydrazide, reference compound]
- MTD (in vivo): 15 mg/kg
- IC50 (T98G): 0.8 µM
- IC50 (A-172): 224 nM
- IC50 (U87MG; Table 6): 129 nM
- IC50 (U87MG; Table 9, first value column): 520 nM
- IC50 (U87MG; Table 9, second value column): 710 nM
- IC50 (HCT116; Homo sapiens, HCT-116): 2130 nM
- HCT116 Max % inh (HCT116): 98%
- IC50 (3T3-L1): > 50000 nM
- survival in MTD study [1]: all mice were dead, or anaesthetized for the weight lost up to 20%
- expression of CRM1 in tumors (IHC) (CRM1): significantly decreased
- IC50 (LN-229): 0.3 µM
- HCN2 Max % inh (HCN2; Table 8): 99%
- IC50 (HCN2; Table 8): 30700 nM
- IC50 (HCN2; Table 9): 34200 nM
- AUC ([2]; po, 10 mg/kg, 10 mpk): 8420 ng·h/mL
- half-life ([2]; mice or rats): 1.7 h
- Cmax ([2]; po, 10 mg/kg, 10 mpk, read-out: Cmax (ng/ml) plasma/10 mpk): 2520 ng/mL
- IC50 (U251): 1 µM
- IC50 (3T3): > 50000 nM
- EC50 (U87MG cells): 12600 nM
- Emax (U87MG cells; U87MG): 398%
- IC50 (C8-B4; C8-B4): 1270 nM
- C8-B4 Max % inh (C8-B4): 100%
- expression of Ki67 in tumors (IHC) (Ki67): significantly decreased
